The subject of one data set is HT29. As to the kind of experiment: G6 sensitivity of colon cell line HT29 (p53 Mt). It is filed as cell-based. The following applies: listed as Rp53-1.
A further data set has as its system Lovo. The data set can be described thus: G6 sensitivity of colon cell line Lovo (p53 WT). It is filed as cell-based. The following applies: listed as Rp53-1.
The subject of another data set is breast cancer cells. The data set can be described thus: Single pulse treatment of breast cancer cells with G6. The format is cell-based. The following applies: single pulse of G6 in the nanomolar range. From the text:
Thus G6 appears to be a potent treatment.

Data set [1] concerns human osteosarcoma xenografted nude mice. As to the kind of experiment: G6 treatment of human osteosarcoma xenografted nude mice. The format is in vivo. From the text: Initial trials of G6 in human osteosarcoma xenografted nude mice have shown promise (FIG. 10). Mice bearing p53 abnormal tumors have responded well to G6. […] Further mouse studies are currently underway.
A further data set deals with PC3. The data set can be described thus: G6 sensitivity of prostate cell line PC3 (p53 null). The format is cell-based. The following applies: listed as Rp53-1.
The test system of data set [2] is wild type cells from corresponding normal tissue. As to the kind of experiment: G6 treatment of wild type cells from corresponding normal tissue. The format is cell-based. The text has this:
(§1) Inherent in the initial drug design was a strategy to develop a therapy that targets mutant p53 containing cells and that would leave healthy cells expressing normal p53 unaffected (FIG. 3).

Another data set has as its system LNcap. As to the kind of experiment: G6 sensitivity of prostate cell line LNcap (p53 WT). The format is cell-based. The following applies: listed as Rp53-1.
Another data set concerns ColoHSR. As to the kind of experiment: G6 sensitivity of colon cell line ColoHSR (p53 Mt). It is filed as cell-based. The following applies: listed as Rp53-1.
Another data set has as its system MDA-435. As to the kind of experiment: G6 sensitivity of breast cancer cells MDA-435 (p53 Mt). It is filed as cell-based, human. The following applies: MDA-435, breast, listed as Rp53-1. Here is the method: To assess the ability of the small molecule compound Rp53-1 to mimic the transcription-promoting functions of p53 leading to Bax expression and induction of cell death, p53-mutated MDA-MB-435 and p53-wild-type MCF-7 human breast cancer cells were treated with Rp53-1. […] Lack of toxicity in cells generating normal p53 activity (all other human cells) would reduce possible side effects. Inherent in the initial drug design was a strategy to develop a therapy that targets mutant p53 containing cells and that would leave healthy cells expressing normal p53 unaffected (FIG. 3).

The subject of data set [3] is p53 defective tumor cell line. As to the kind of experiment: G6 treatment of p53 defective tumor cell lines. The format is cell-based. The following applies: every p53 defective tumor cell line treated.
Text: as §1

In a further data set the test system is Saos-2. As to the kind of experiment: G6 sensitivity of osteosarcoma cell line Saos-2 (p53 null). The format is cell-based. The following applies: Saos-2, osteosarcoma, listed as Rp53-1.
Data set [4] has as its system p53 Reporter in p53 Mt and Null Cells. The data set can be described thus: p53 reporter in p53 Mt and Null cells. The format is cell-based.
A further data set concerns DU145. The data set can be described thus: G6 sensitivity of prostate cell line DU145 (p53 Mt). It is filed as cell-based. The following applies: listed as Rp53-1.
The subject of a further data set is SW480. As to the kind of experiment: G6 sensitivity of colon cell line SW480 (p53 Mt). It is filed as cell-based. The following applies: listed as Rp53-1.
Data set [5] has as its system p53/Bax reporter in HEK293T cells. The data set can be described thus: p53/Bax luciferase reporter system in HEK293T cells. It is filed as cell-based. From the text: To identify p53 mimics, we developed a live mammalian cell system that reports the promotion of the expression of the pro-apoptotic Bax protein. The bax promoter consists of a 372 nucleotide 5′ UTR, a TATAA sequence, and several consensus sequences that bind p53, resulting in up-regulation of Bax expression (see, e.g., FIG. 1). By expressing these sites upstream of the gene encoding luciferase in HEK293T cells, we have established a novel set of reporter cell lines. These cells provide a system which allows identification of both direct activators of Bax expression and replacements of an apoptotic function of p53. In initial studies, cotransfection of a p53 expression plasmid with a reporter bearing oligomerized consensus binding sites yielded strongly luminescent cells, whereas cotransfection with an irrelevant plasmid gave no luminescence. […] By employing the Multi-Probe H liquid handling robotic system and the ultra-sensitive Top-Count luminometer, high-speed screening of thousands of compounds has been enabled at the Buck Institute. We obtained and screened a 2000 compound small molecule library made available by the National Cancer Institute in our p53 reporter system in HEK293T cells.
On the technique in general: A reporter such as luciferase makes a cellular process visible.

“Also recorded” adds a separate entry of the source.

Turning to `Cc1cc(OCc2nc(N)nc(N)c2-c2ccc(Cl)c(Cl)c2)ccc1[N+](=O)[O-]` [G6], the “G6 Sensitivity” value in the data set on HT29 is “sensitive”; in the data set on Lovo, “resistant”; with PC3 it was “sensitive”; in the data set on LNcap, “resistant”; in the data set on ColoHSR, “sensitive”; in the data set on MDA-435, “sensitive”. For the same molecule, the “G6 Sensitivity” value in the data set on Saos-2, in the data set with DU145 and with SW480 was “sensitive” each time. For the same molecule, the “activation of the cell death program / drug efficacy” value with breast cancer cells is reported as “complete drug efficacy; also recorded: sufficient to activate the cell death program”. In [1] (human osteosarcoma xenografted nude mice treated with G6), the adverse side effects entry was “none of the mice have shown adverse side effects”. Further, in data set [1] (nude mice implanted with human osteosarcoma tissue, p53 abnormal tumors), the tumor regression result is on record as “complete regression of tumor”. The “effect of G6 on wild type cells” value in [2] is on record as “unaffected”. In data set [3], the “susceptibility to G6” value was “showed susceptibility”. For the same molecule, the “induction of p53 Reporter” value in data set [4] is listed as “induces p53 Reporter”. In addition, the “expression of luciferase levels relative to transfected wild-type p53” value in data set [5] (high concentrations (10 μM)) is “greater than transfected wild-type p53”. The “luciferase expression and activity (p53 reporter)” value in [5] (listed as Rp53-1) is “activates the p53/Bax reporter; also recorded: significant levels of luciferase activity”.

Source of the values: patent publication US9789121B2, “Small molecules that replace or agonize p53 function” (BUCK INSTITUTE, priority 2004, dated 2017).
